pEC50: −log10 of the molar value.
Legend:
rhesus monkey = test: Spatial delayed response working memory task; assay type: in vivo, rhesus and one stumptail macaque; conditions: for Delay-dependent errors: 0.1 mg/kg; for Delay-dependent errors at short delays: 1.0 mg/kg
Procedure: Sixteen rhesus and one stumptail macaque participated in the study (details provided below) that was performed at Yale University, New Haven CT, USA. Animals were used and cared for in full accordance with Yale University’s IACUC guidelines and polices in addition to all U.S. Federal policies and regulations. The monkeys were fed their normal diet each day, including appropriately nutritional biscuits and multiple fruits and vegetables for enrichment. Testing and any training occurred just before their main food course. This food consisted of biscuits, delivered each day, and all animals had full 24-h access to ad libitum water. Participation in cognitive testing was ensured by the enrichment of the environmental stimulation and the provision of the animals’ favorite food treats as rewards in the task, including yoghurt, raisins, almonds, grapes, fruit loops, and multiple other food items (Roberts et al [2010]).
The circuitry involved in this response is almost exclusively “dorsal stream” involving dorsolateral prefrontal cortex, particularly Area 46, and the lateral intraparietal sulcus (Goldman-Rakic [1996]). For a full description of the task used here, see Roberts et al. ([2010]). Animals were tested in a sound-attenuated room incorporating a testing chamber. In this task one of several well locations is baited with food in view of the animal and the wells are then covered with identical plaques. An opaque shutter is then lowered for one of 5 variable delays and then raised to allow the animal to make a response to one of the well locations to retrieve the food. Each delay length was repeated 4 times in a semirandom distribution across the 20 trials in each testing session. Each animal was stabilized prior to commencing any administration by gradually incrementing the number of wells (starting at just 2) and the lengths of the delay. The 5 variable delay lengths were set at 0, 1, 2, 3, and 4 s multiplied by a factor “N.” Thus, N was incremented by 1 up to a maximum of 10 until the subject performed at 80% or more across 3 consecutive test sessions whereupon the number of wells was incremented by 1. This process was repeated for each individual until they reached stable performance (65–75% ± ≤ 2.5% correct). This normalized level of performance allows for the sensitive detection of any impairment or improvement produced by experimental conditions. For baseline data for this study, we took 7 or more consecutive data points that had been collected in previous weeks which fell within the stable limits for the test. For the total group of 17 animals participating in this study, the median well number was 4 (range 2–7) and the median N value was 3 (range 1–7). Animals were typically tested 2 to 3 days a week.
DPTQ (free base, Eli Lilly & Co.) was prepared as described above for the spontaneous eye blink test. Animals (4 males and 6 females, mean age = 22.1 ± 1.7 years) were originally assigned to receive either vehicle or DPTQ 2.5 mg/kg IM in a semi-random design. One animal received vehicle but was not dosed with DPTQ. This same group of animals was later used in a repeated dosing study with DPTQ 2.5 mg/kg vs vehicle. After a protracted washout period of several months we tested the lower doses of 0.1 mg/kg and 1.0 mg/kg in ascending order. This group of 10 animals included 3 from the previous study (3 males, 7 females (including one aged stumptail macaque); average age = 22.6 ± 1.7 years). The youngest animal in this study was aged 17.3 years. None of the animals were naïve and had all been used in previous studies with other compounds. They were given an extensive washout of weeks or months prior to this study and were established to have normal baseline performance on the task. During the study, animals were washed out based on known PK properties (half-life) of this drug as well as the baseline performance of each individual animal. […]

human D1 = test system: human D1; parameters: method as in Hao et al. [2019]; conditions: stably transfected human D1 cloned cells; ref Hao et al. [2019]; read-out: EC50 for potentiation of the dopamine-induced increase in cAMP; cited from earlier work
[1] = parameters: method as in Hao et al. [2019]; conditions: after systemic dosing; ref Hao et al. [2019]; cited from earlier work
human D1 receptor = molecular target: T1, human D1 receptor (Homo sapiens, UniProt P21728); test: cAMP assay: potentiation of EC20 dopamine in transiently transfected HEK293 cells; assay type: cell-based; conditions: human D1, HEK293 transient, n = 4
T1 construct: expressed in transfected cells; host or cells: HEK293 (transient, Jump-In vector)
Procedure: (§1) The human, rhesus monkey, dog, or mouse D1 receptor was cloned into the Jump-In vector system (Life Technologies Corp, CA) and transiently transfected into HEK293 cells. Increases in cAMP by DPTQ (free base, Eli Lilly) were measured in the presence of an EC20 concentration of dopamine. The EC50 values for each species along with % max stimulation (where dopamine max stimulation equals 100%) are presented in Table 1. These in vitro studies were performed at Eli Lilly and Company, Indianapolis, in USA. For further details on the measurement of effects on cAMP accumulation in these transiently transfected cells, see Hao et al. ([2019]).

dog D1 receptor = test: as above; assay type: cell-based; conditions: dog D1, HEK293 transient, n = 4
Procedure: as §1

[2] = molecular target: T2, rhesus monkey D1 receptor (Macaca mulatta, UniProt O77680); test: as above; assay type: cell-based; conditions: rhesus D1, HEK293 transient, n = 4
T2 construct: expressed in transfected cells; host or cells: HEK293 (transient, Jump-In vector)
Procedure: as §1

mouse D1 receptor = molecular target: T3, mouse D1 receptor (Mus musculus, UniProt Q61616); test: as above; assay type: cell-based; conditions: mouse D1, HEK293 transient, n = 4
T3 construct: expressed in transfected cells; host or cells: HEK293 (transient, Jump-In vector)
Procedure: as §1

T3 sequence (Q61616 whole entry): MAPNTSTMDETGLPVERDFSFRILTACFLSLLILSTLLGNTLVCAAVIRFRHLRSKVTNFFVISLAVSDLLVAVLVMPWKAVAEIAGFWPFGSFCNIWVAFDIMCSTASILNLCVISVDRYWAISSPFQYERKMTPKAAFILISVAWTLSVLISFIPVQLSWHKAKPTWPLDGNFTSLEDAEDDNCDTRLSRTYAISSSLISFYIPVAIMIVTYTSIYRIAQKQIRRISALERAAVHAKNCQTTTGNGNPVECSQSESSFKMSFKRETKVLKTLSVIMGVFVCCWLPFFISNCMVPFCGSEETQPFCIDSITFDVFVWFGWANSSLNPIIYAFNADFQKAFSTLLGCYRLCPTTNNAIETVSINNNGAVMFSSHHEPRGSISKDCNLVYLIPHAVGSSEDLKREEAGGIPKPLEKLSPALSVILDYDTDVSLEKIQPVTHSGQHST
T1 sequence (P21728 whole entry): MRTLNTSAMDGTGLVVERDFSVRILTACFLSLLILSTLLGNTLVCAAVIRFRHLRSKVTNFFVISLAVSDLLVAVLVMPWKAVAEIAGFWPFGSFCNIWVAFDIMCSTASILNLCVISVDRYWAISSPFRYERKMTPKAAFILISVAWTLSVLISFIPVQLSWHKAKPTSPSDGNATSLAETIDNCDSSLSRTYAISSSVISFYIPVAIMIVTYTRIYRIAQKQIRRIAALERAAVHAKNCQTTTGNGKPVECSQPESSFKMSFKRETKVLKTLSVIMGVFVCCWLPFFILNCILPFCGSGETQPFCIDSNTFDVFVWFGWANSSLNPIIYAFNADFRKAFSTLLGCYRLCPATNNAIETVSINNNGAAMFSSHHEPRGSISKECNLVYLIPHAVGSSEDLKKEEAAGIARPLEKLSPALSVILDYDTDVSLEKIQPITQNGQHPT
T2 sequence (O77680 whole entry): as the sequence (P21728 whole entry) above, with N311I counted along it

SMILES: C[C@H]1c2cccc(CC(C)(C)O)c2C[C@H](CO)N1C(=O)Cc1c(Cl)cccc1Cl [DPTQ]
- Working memory performance over 2 weeks (rhesus monkey; 0.1 mg/kg IM, n = 10, no diminution on day 3, p = 0.014): modest enhancement of working memory
- Delay-dependent errors (rhesus monkey; day 1, short (0, 1) N and long (3, 4) N delays): slight increase in errors
- Delay-dependent errors (rhesus monkey; day 5, particularly long delays): small but non-significant decrease in errors
- Working memory performance over 2 weeks (rhesus monkey; 1.0 mg/kg IM, n = 8, p = 0.006, strongest day 4 p < 0.0001): significant improvement in working memory
- Delay-dependent errors at short delays (rhesus monkey; day 1): no reduction in errors
- Delay-dependent errors at short delays (rhesus monkey; day 5): reduction
- Working memory performance day 3 (rhesus monkey; 2.5 mg/kg IM on days 1 and 5, n = 6): non-significant dip
- Working memory performance day 6 (rhesus monkey; 2.5 mg/kg IM on days 1 and 5, day after repeat dose): reduction in performance to baseline
- Working memory performance days 8-14 (rhesus monkey; 2.5 mg/kg IM on days 1 and 5, days 8, 12 p < 0.05, days 10, 14 p < 0.01): enhancement
- Working memory performance days 4 and 5 (rhesus monkey; 2.5 mg/kg IM on days 1 and 5, p < 0.01): rebound enhancement
- Working memory performance, acute effect (rhesus monkey; 2.5 mg/kg IM single dose, day 1, 1 h post injection, n = 9): No immediate acute effect
- Diminution of performance (rhesus monkey; 2.5 mg/kg IM single dose, day 2): 10%
- Mean performance score (rhesus monkey; 2.5 mg/kg IM single dose, day 3, p = 0.025 vs baseline, baseline 65–75% correct): 61.1
- Mean performance score (rhesus monkey; 2.5 mg/kg IM single dose, day 4, improvement days 4, 5, 6 p < 0.01): 84.3
- Working memory deficit on day 3 (rhesus monkey; 2.5 mg/kg day 1, vehicle day 5, n = 10, p = 0.278 vs baseline): small and did not achieve significance
- Working memory performance days 4-12 (rhesus monkey; 2.5 mg/kg day 1, vehicle day 5, days 4, 8 p < 0.001, day 5 p < 0.0001, days 10, 12 p < 0.05): enhancement
- Dose range over which procognitive effects were observed (rhesus monkey; 0.1 to 2.5 mg/kg IM): at least 25 fold
- Acute effect on spatial working memory (rhesus monkey; 1 h after injection, regardless of the dose administered): entirely null acute effect
- Score on day 3 at 0.1 and 1.0 mg/kg compared with 2.5 mg/kg (rhesus monkey; day 3, p < 0.01, p < 0.05 respectively): significantly higher score
- Score on day 4 at 2.5 mg/kg compared with 0.1 mg/kg (rhesus monkey; day 4): significantly greater
- Difference in scores attributable to dose (rhesus monkey; day 5, 0.1, 1.0, 2.5 mg/kg): No difference
- pEC50 (human D1): 7.12
- Brain penetration [1]: acceptable brain penetration
- pEC50 (human D1 receptor): 7.64
- Max stimulation (% of max DA) (human D1 receptor): 77 % of max DA
- pEC50 (dog D1 receptor): 7.67
- Max stimulation (% of max DA) (dog D1 receptor): 88 % of max DA
- pEC50 [2]: 7.42
- Max stimulation (% of max DA) [2]: 82 % of max DA
- pEC50 (mouse D1 receptor): 6.27
- Max stimulation (% of max DA) (mouse D1 receptor): 41 % of max DA

— PMC10102062, “Effects of DPTQ, a novel positive allosteric modulator of the dopamine D1 receptor, on spontaneous eye blink rate and spatial working memory in the nonhuman primate” (Psychopharmacology, 2023)
